# Reference: publication PMC12257394, “Design, Synthesis, and Biological Evaluation of Ferrocenyl–Cyclo-(Gly‑L‑Pro) Hybrids Sensitizing Multidrug-Resistant Cancer Cells to Anticancer Agents” (ACS Medicinal Chemistry Letters, 2025)
# Assays:
# Format in all cases: cell-based, human
# [1] = tested on: SW620C cells (cisplatin-resistant); experiment: Neutral red uptake viability assay, SW620C; conditions: for survival rate: n = 3, ± SD; for IC50: read-out: Cytotoxic activity IC50 (95% CI)
# Description: (§1) The normal lung fibroblast MRC-5 and colorectal adenocarcinoma SW620 cell lines used in this experiment were purchased from American Type Culture Collection (USA) via LGC […]
# described previously.10, 11 All cells were cultured under standard conditions (37°C, 5% CO2, 100% humidity) in high-glucose DMEM supplemented with GlutaMaxTM, HEPES (ThermoFisher Scientific, USA), and 10% fetal bovine serum (EURx, Poland). Cells were routinely tested for potential Mycoplasma contamination using the MycoProbe Mycoplasma Detection kit (R&D System, USA).
# (§2) In total, 104 cells in 100 µL of complete medium were plated per well of a 96-well plate and left overnight to allow cells to adhere to the surface. Then, the cells were exposed to a desired concentration of tested compound(s). Stock solutions were prepared in DMSO and used immediately. The final DMSO concentration was constant and nontoxic (0.1% v/v). After 70-h incubation, neutral red was added to the final concentration of 1 mM. After another 2 h, the medium was aspirated, and cells were washed twice with PBS. Dye was released using 100 µL of a solubilizer (1% acetic acid in 50% ethanol) on an orbital shaker (10 min). Absorbance was read at 540 nm using EnVision Multilabel Plate Reader (Perkin Elmer, USA). Results were expressed as % of control. The IC50 parameters were calculated using GraphPad Prism version 10 (GraphPad Software, Boston, Massachusetts USA). […]
# IC₅₀ values were determined in […]
# (§3) All experiments were performed in triplicate (n = 3).
# [2] = tested on: SW620D cells (doxorubicin-resistant); experiment: Neutral red uptake viability assay, SW620D; conditions: 72 h; for survival rate: n = 3, ± SD; for IC50: n = 3, read-out: Cytotoxic activity IC50 (95% CI)
# Description: (§4) In general, compounds 4a–e exerted little or no cytotoxic effect on either SW620 or multidrug-resistant sublines even at 10 μM, with the remarkable exception of SW620C (cisplatin-selected variant of SW620) cells, which turned out to be relatively susceptible toward ferrocenyl 4a–c. […] This trend may reflect steric or electronic contributions to cellular uptake or interaction with intracellular targets. […] However, since E/Z isomeric data are currently available only for compound 4c, this hypothesis requires validation. To quantify this effect, IC50 values were determined (Table ). […]
# as §1
# (§5) Standards. Multidrug-resistant variants of SW620 cells were developed in our laboratory as described previously.10, 11 All cells were cultured under standard conditions (37°C, 5% CO2, 100% humidity) in high-glucose DMEM supplemented with GlutaMaxTM, HEPES (ThermoFisher Scientific, USA), and 10% fetal bovine serum (EURx, Poland). Cells were routinely tested for potential Mycoplasma contamination using the MycoProbe Mycoplasma Detection kit (R&D System, USA).
# (§6) In total, 104 cells in 100 µL of complete medium were plated per well of a 96-well plate and left overnight to allow cells to adhere to the surface. Then, the cells were exposed to a desired concentration of tested compound(s). Stock solutions were prepared in DMSO and used immediately. The final DMSO concentration was constant and nontoxic (0.1% v/v). After 70-h incubation, neutral red was added to the final concentration of 1 mM. After another 2 h, the medium was aspirated, and cells were washed twice with PBS. Dye was released using 100 µL of a solubilizer (1% acetic acid in 50% ethanol) on an orbital shaker (10 min). Absorbance was read at 540 nm using EnVision Multilabel Plate Reader (Perkin Elmer, USA). Results were expressed as % of control. The IC50 parameters were calculated using GraphPad Prism version 10 (GraphPad Software, Boston, Massachusetts USA).
# (§7) The enhancement of reversal potency (ERP) value determination
# (§8) For MDR reversal assays, cytotoxic agents were co-administered with compounds 4a–4e at equimolar concentrations in a range of 10 nM to 100 µM. IC₅₀ values were determined in ABCB1-overexpressing SW620 cell line variants. The enhancement of reversal potency (ERP) was calculated using the following formula: ERP = IC₅₀(drug)MDR / IC₅₀(drug + compound)MDR. All experiments were performed in triplicate (n = 3).
# [3] = tested on: SW620V cells (vincristine-resistant); experiment: Neutral red uptake viability assay, SW620V; conditions: 72 h; for survival rate: n = 3, ± SD; for IC50: n = 3, read-out: Cytotoxic activity IC50 (95% CI)
# Description: as §4, §1, §5, §6, §7, §8
# [4] = tested on: SW620Mito cells (mitoxantrone-resistant); experiment: Neutral red uptake viability assay, SW620Mito; conditions: 72 h; for survival rate: n = 3, ± SD; for IC50: n = 3, read-out: Cytotoxic activity IC50 (95% CI)
# Description: as §4, §1, §5, §2, §3
# [5] = tested on: ABCB1-overexpressing SW620V cells; experiment: MDR reversal assay (ERP), SW620V; conditions: for ERP value, vincristine + compound: SW620V (xlsx); for ERP = IC50(drug)MDR/IC50(drug+4)MDR: vincristine, SW620V
# Description: We investigated the potency of 4a–e to inhibit ABC transporters (ABCB1, ABCC1, and ABCG2) by determining their enhancement of reversal potency (ERP) values. ERP represents fold changes in the IC50 values of anticancer drugs in multidrug-resistant cancer sublines (ABCB1-overexpressing SW620D, SW620E, and SW620V; ABCC1-overexpressing SW620M; ABCG2-overexpressing SW620C and SW620Mito) exposed to a combination of the investigated compounds and anticancer agents at equimolar concentrations, compared with values obtained with drugs alone (Tables S2 and S3 and Figure ).
# as §5, §6, §7, §8
# SW620 cells = experiment: Synergy determination (Bliss model, SynergyFinder), SW620;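 also: score below −10 means likely antagonism and −10 to 10 means additive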
# Description: (§9) In an ideal setting, the effect of cell exposure to a combination of a chemotherapeutic and an MDR inhibitor should be synergistic. […] The highest synergy scores identified an optimal concentration range where the combination exerted its maximal effect. […] In cisplatin-resistant SW620C cells, the low or lack of synergy observed for most compounds may be due to the additive effects of cisplatin and 4 rather than a true synergistic interaction. […]
# (§10) To evaluate the potential interactions between putative ABC inhibitors and anticancer drugs, we utilized the Bliss independence model, as implemented in the SynergyFinder web application.13, 14 Synergy scores and the most synergistic area scores were calculated based on the normalized dose–response matrices. A synergy score below −10 indicates likely […]
# (§11) above 10 is indicative of likely synergistic interactions.
# (§12) All experiments were performed at least three times, and the data were statistically analyzed
# SW620C cells = experiment: Synergy determination (Bliss model, SynergyFinder), SW620C; conditions: drug cisplatin + additive; for synergy score: Bliss model
# Description: as §9, §10, §11, §12
# SW620D cells = experiment: Synergy determination (Bliss model, SynergyFinder), SW620D; conditions: drug doxorubicin + additive; for synergy score: Bliss model
# Description: as §9, §10, §11, §12
# SW620E cells = experiment: Synergy determination (Bliss model, SynergyFinder), SW620E; conditions: drug etoposide + additive; for synergy score: Bliss model
# Description: as §9, §10, §11, §12
# SW620Mito cells = experiment: Synergy determination (Bliss model, SynergyFinder), SW620Mito; conditions: drug mitoxantrone + additive, SW602Mito; for synergy score: Bliss model
# Description: as §9, §10, §11, §12
structure (smiles),measurement,setting,value
"O=C1N/C(=C/c2cccc(-[c-]3cccc3)c2)C(=O)N2CCC[C@@H]12.[Fe+2].c1cc[cH-]c1 [(S,E)-4c]","fold higher IC50 value than (S,Z)-4c",[1]; SW620C cells,13 fold
same,survival rate,"[1]; SW620C, 1 μM, 72 h",84 ± 0.7%
same,survival rate,"[1]; SW620C, 10 μM, 72 h",87 ± 1.1%
same,IC50,"[1]; SW620C, 72 h, n = 3",62.4 µM
same,survival rate,[2]; 1 μM,95 ± 1.5%
same,survival rate,[2]; 10 μM,95 ± 4.5%
same,IC50,[2],> 100 µM
same,survival rate,[3]; 1 μM,96 ± 1.8%
same,survival rate,[3]; 10 μM,94 ± 0.8%
same,IC50,[3],> 100 µM
same,survival rate,[4]; 1 μM,94 ± 3.5%
same,survival rate,[4]; 10 μM,94 ± 1.1%
same,IC50,[4],> 100 µM
same,"ERP value, vincristine + compound",[5],0.81
same,ERP = IC50(drug)MDR/IC50(drug+4)MDR,[5],0.81
same,synergy score (in parentheses),SW620 cells; drug cisplatin + additive,−4.66
same,synergy score (in parentheses),SW620 cells; drug doxorubicin + additive,−1.89
same,synergy score (in parentheses),SW620 cells; drug etoposide + additive,−4.80
same,synergy score (in parentheses),SW620 cells; drug methotrexate + additive,−4.31
same,synergy score (in parentheses),SW620 cells; drug mitoxantrone + additive,0.86
same,most synergistic area score,SW620C cells,8.86
same,synergy score,SW620C cells,0.39
same,most synergistic area score,SW620D cells,1.68
same,synergy score,SW620D cells,–3.01
same,most synergistic area score,SW620E cells,1.22
same,synergy score,SW620E cells,–4.06
same,most synergistic area score,SW620Mito cells,0.67
same,synergy score,SW620Mito cells,–4.74
"O=C1N/C(=C/c2ccccc2)C(=O)N2CCC[C@@H]12 [(S,E)-4e]",survival rate,"[1]; SW620C, 1 μM, 72 h",96 ± 0.8%
same,survival rate,"[1]; SW620C, 10 μM, 72 h",95 ± 2.5%
same,survival rate,[2]; 1 μM,96 ± 2.4%
same,survival rate,[2]; 10 μM,95 ± 0.7%
same,survival rate,[3]; 1 μM,95 ± 2.9%
same,survival rate,[3]; 10 μM,95 ± 3.3%
same,survival rate,[4]; 1 μM,94 ± 0.7%
same,survival rate,[4]; 10 μM,96 ± 0.8%
same,"ERP value, vincristine + compound",[5],1.34
same,ERP = IC50(drug)MDR/IC50(drug+4)MDR,[5],1.37
same,synergy score (in parentheses),SW620 cells; drug cisplatin + additive,−4.17
same,synergy score (in parentheses),SW620 cells; drug doxorubicin + additive,−4.78
same,synergy score (in parentheses),SW620 cells; drug etoposide + additive,−1.15
same,synergy score (in parentheses),SW620 cells; drug mitoxantrone + additive,−3.41
same,most synergistic area score,SW620C cells,3.89
same,synergy score,SW620C cells,–2.78
same,most synergistic area score,SW620D cells,0.00
same,synergy score,SW620D cells,–6.63
same,most synergistic area score,SW620E cells,0.19
same,synergy score,SW620E cells,–3.93
same,most synergistic area score,SW620Mito cells,4.35
same,synergy score,SW620Mito cells,–0.12
"O=C1N/C(=C\[c-]2cccc2)C(=O)N2CCC[C@@H]12.[Fe+2].c1cc[cH-]c1 [(S,Z)-4a]",survival rate,"[1]; SW620C, 1 μM, 72 h",78 ± 1.8%
same,survival rate,"[1]; SW620C, 10 μM, 72 h",54 ± 3.1%
same,Cytotoxic activity IC50 (95% CI),"[1]; SW620C, 72 h, n = 3",low-micromolar
same,IC50,"[1]; SW620C, 72 h, n = 3",15.1 µM
same,survival rate,[2]; 1 μM,96 ± 4.8%
same,survival rate,[2]; 10 μM,93 ± 1.1%
same,IC50,[2],> 100 µM
same,survival rate,[3]; 1 μM,94 ± 0.7%
same,survival rate,[3]; 10 μM,94 ± 2.5%
same,IC50,[3],> 100 µM
same,survival rate,[4]; 1 μM,98 ± 2.0%
same,survival rate,[4]; 10 μM,90 ± 3.1%
same,IC50,[4],> 100 µM
same,"ERP value, vincristine + compound",[5],6.00
same,ERP = IC50(drug)MDR/IC50(drug+4)MDR,[5],6.00
same,synergy score (in parentheses),SW620 cells; drug cisplatin + additive,−4.74
same,synergy score (in parentheses),SW620 cells; drug doxorubicin + additive,−4.15
same,synergy score (in parentheses),SW620 cells; drug etoposide + additive,−4.45
same,synergy score (in parentheses),SW620 cells; drug methotrexate + additive,−5.99
same,synergy score (in parentheses),SW620 cells; drug mitoxantrone + additive,−1.66
same,synergy score (in parentheses),SW620 cells; drug vincristine + additive,−0.36
same,most synergistic area score,SW620C cells,4.33
same,synergy score,SW620C cells,–2.62
same,most synergistic area score,SW620D cells,20.51
same,synergy score,SW620D cells,6.30
same,most synergistic area score,SW620E cells,28.26
same,synergy score,SW620E cells,12.44
same,most synergistic area score,SW620Mito cells,16.82
same,synergy score,SW620Mito cells,7.86
